Experimental findings from patent publication US7935688B2, “Vitamin D-like compound” (Chugai Seiyaku Kabushiki Kaisha, priority 2005, dated 2011) are described below.

For assay [1], the system named is osteocalcin production in MG-63 cells. Briefly: Osteocalcin production in MG-63 cells (Gla-type Osteocalcin EIA). The assay is classed as cell-based, human. The conditions noted are these: (EC50 value of 1,25(OH)2D3/EC50 value of each compound)×100; eight hours exposure, then four days culture. The procedure: mg-63 was obtained from Institute for Fermentation, Osaka as a human osteoblast-like cell line. MG-63 cells were maintained and cultured in a MEM medium (Minimum essential medium; pH 7.0; Invitrogen Corporation, Carlsbad, Calif., USA) containing 5% fetal bovine serum (FBS; HyClone, Logan, Utah, USA).
MG-63 cells were adjusted to a density of 4.0×10^4 cells/mL, plated in a 96-well plate at 200 μL per well, and cultured under conditions of 37° C. and 5% carbon dioxide for 24 hours.
After removing the medium, MEM containing 5% charcoal/dextran treated FBS (DCC-FBS; Hyclone, Logan, Utah, USA) was added at 180 μL/well. The test substance (1.0×10^−3 mol/L) was diluted with dimethyl sulfoxide (DMSO) to 1.0×10^−4 mol/L, 1.0×10^−5 mol/L, 1.0×10^−6 mol/L, 1.0×10^−7 mol/L and 1.0×10^−8 mol/L. 1,25(OH)2D3 was used as a positive control. Like the test substance, 1,25(OH)2D3 was diluted with DMSO. 0.02 mL of the positive control and the test substance diluted 100-fold with MEM containing 5% DCC-FCS was added to each well of the 96-well plate, so that the final drug concentration was 1.0×10^−6 mol/L to 1.0×10^−11 mol/L. Thereafter, the cells were cultured under conditions of 37° C. and 5% carbon dioxide for eight hours.
After culturing for eight hours, the medium was removed, and MEM containing 5% DCC-FBS was added at 0.2 mL per well. The cells were cultured under conditions of 37° C. and 5% carbon dioxide for four days, and the medium was recovered. The medium was stored at −80° C. until osteocalcin measurement.
The Gla-type Osteocalcin EIA kit (Takara Bio Inc., Tokyo, Japan) was used for measurement of osteocalcin. Measurement was carried out using a microplate reader (Model 3550, Bio-Rad Laboratories, Inc., Hercules, Calif., USA) at a wavelength of 450 nm, and the results were analyzed by Microplate Manager III (Bio-Rad Laboratories, Inc., ver. 1.57).
The median effective concentration (EC50) was calculated from the osteocalcin concentration. Potency of induction of each compound was calculated as a ratio of EC50 of 1,25(OH)2D3 to EC50 of the compound. The relation between diseases and induction of osteocalcin production is described in Lancet (1984 May 19), 1 (8386), 1091-3; Steroids 66, 159-170 (2001); and Journal of Steroid Biochemistry & Molecular Biology 89-90, 269-271 (2004), for example.
The osteocalcin production level in MG-63 cells (%) was calculated by the formula: (EC50 value of 1,25(OH)2D3/EC50 value of each compound)×100.

The test system of assay [2] is Sprague-Dawley female rats subjected to ovariectomy (OVX). Briefly: Effect of increasing bone density in ovariectomized rats (dual X-ray bone densitometry). The assay is classed as in vivo, rat. The following applies: forcibly orally, five times per week, pathological control group (vehicle) = 100%. The procedure:
The compound of the present invention was adjusted to each concentration using middle chain triglyceride (MCT) as a base. The adjusted solution was stored under shading at 4° C. until use.
Seven-week-old Sprague-Dawley (Crj:CD(SD)) female rats (Charles River Laboratories Japan, Inc.) were preliminarily bred for one week in an environment at a room temperature of 20 to 26° C., at a humidity of 35 to 75% and with an air change of 10 times or more per hour. The rats were allowed to freely take tap water and CE-2 (CLEA Japan, Inc.) as a feed.
After preliminary breeding, the animals were subjected to ovariectomy (OVX) and divided into groups (eight animals per group) on the day after the operation. Only MCT as a base was forcibly orally administered to the sham operation group (sham) and the pathological control group (OVX-vehicle) at a dose of 1 mL/kg (five times per week). The compound of the present invention was also forcibly orally administered at the same dose five times per week.
The animals were bred in a metabolic cage and urine was collected for 24 hours after the final administration. Blood was collected from the abdominal aorta under ether anesthesia for 24 hours after the final administration. The blood was allowed to stand at room temperature for 30 minutes and then centrifuged to provide serum. The femur and lumbar spine were collected and stored in 70% ethanol until bone density measurement.
The bone density of the femur and the second to fifth lumbar spines of the isolated lumbar spines was measured by the dual X-ray bone densitometry system DCS-600-EX (ALOKA). The distal femur bone density was measured for three […] regions out of 10 regions of the femur equally divided in length. The bone density in each site was described based on the bone density of the pathological control group (vehicle group) in each experiment as 100%.
The effects of the compounds of the present invention on the lumbar spine bone density are shown in Table 2 as an example of the obtained results.

Regarding `CCC(CC)(c1ccc(/C=C/C(O)(C(F)(F)F)C(F)(F)F)c(C)c1)c1ccc(-c2cccc(CC(=O)O)c2)c(C)c1` [Example 71, (4′-{1-ethyl-1-[3-methyl-4-((E)-4,4,4-trifluoro-3-hydroxy-3-trifluoromethyl-1-butenyl)-phenyl]-propyl}-2′-methyl-biphenyl-3-yl)-acetic Acid], in assay [1], the “Osteocalcin production level in MG-63 cells (%)” value is 746%. Besides, the figures for the “Lumbar spine bone density (%)” value in assay [2] (0.025 μg/kg) and in assay [2] (0.05 μg/kg) were 110.58% and 115.09%, respectively. `CCC(CC)(c1ccc(/C=C/C2(O)CCCCC2)c(C)c1)c1ccc(-c2cc(Cl)ccc2CC(=O)O)c(C)c1` [Example 89, [5-chloro-4′-(1-ethyl-1-{4-[(E)-2-(1-hydroxy-cyclohexyl)-vinyl]-3-methyl-phenyl}-propyl)-2′-methyl-biphenyl-2-yl]-acetic Acid]: the “Lumbar spine bone density (%)” value in assay [2] (1.25 μg/kg) turned out to be 109.24%; in assay [2] (2.5 μg/kg), 121.37%.

With `CCC(CC)(c1ccc(-c2cncc(CC(=O)O)c2)cc1)c1ccc(CCC2(O)CCCCC2)c(C)c1` [Example 149, {5-[4-(1-ethyl-1-{4-[2-(1-hydroxy-cyclohexyl)-ethyl]-3-methyl-phenyl}-propyl)-phenyl]-pyridin-3-yl}-acetic Acid], the “Osteocalcin production level in MG-63 cells (%)” value in assay [1] was found to be 1305%. The “Lumbar spine bone density (%)” value in assay [2] (0.075 μg/kg) amounted to 111.40%; in assay [2] (0.15 μg/kg), 116.00%. For the compound `CCC(CC)(c1ccc(/C=C/C2(O)CCCC2)c(C)c1)c1ccc(-c2ccc(CC(=O)[O-])c(F)c2)c(C)c1.[Na+]` [Example 84, Sodium [4′-(1-ethyl-1-{4-[(E)-2-(1-hydroxy-cyclopentyl)-vinyl]-3-methyl-phenyl}-propyl)-3-fluoro-2′-methyl-biphenyl-4-yl]-acetate], the “Osteocalcin production level in MG-63 cells (%)” value in assay [1] was 739%. Turning to `CCC(CC)(c1ccc(CCC(O)C(C)(C)C)c(C)c1)c1ccc(-c2ccc(CC(=O)O)c(F)c2)c(C)c1` (stereo not drawn) [Example 60, (4′-{1-ethyl-1-[4-(3-hydroxy-4,4-dimethyl-pentyl)-3-methyl-phenyl]-propyl}-3-fluoro-2′-methyl-biphenyl-4-yl)-acetic Acid], the “Osteocalcin production level in MG-63 cells (%)” value in assay [1] is 3798%. On to `CCC(CC)(c1ccc(/C=C/C(O)(C(F)(F)F)C(F)(F)F)c(C)c1)c1ccc(-c2nc(CC(=O)O)cs2)c(C)c1` [Example 76, [2-(4-{1-ethyl-1-[3-methyl-4-((E)-4,4,4-trifluoro-3-hydroxy-3-trifluoromethyl-1-butenyl)-phenyl]-propyl}-2-methyl-phenyl)-thiazol-4-yl]-acetic Acid], for which the “Osteocalcin production level in MG-63 cells (%)” value in assay [1] was 407%. Also, the “Lumbar spine bone density (%)” value in assay [2] (0.015 μg/kg) came out at 110.22%; in assay [2] (0.03 μg/kg) it was 111.00%. In the case of `CCC(CC)(c1ccc(OCC(O)C(C)(C)C)c(C)c1)c1ccc(-c2ccc(CC(=O)O)cc2)c(C)c1` (stereo not drawn) [Example 51, (4′-{1-ethyl-1-[4-(2-hydroxy-3,3-dimethyl-butoxy)-3-methyl-phenyl]-propyl}-2′-methyl-biphenyl-4-yl)-acetic Acid], the “Osteocalcin production level in MG-63 cells (%)” value in assay [1] amounted to 650%. The same measure, in the same setting: as for `CCC(CC)(c1ccc(-c2cncc(CC(=O)O)c2)cc1)c1ccc(C#CC2(O)CCCCC2)c(C)c1` [Example 147, [5-(4-{1-ethyl-1-[4-(1-hydroxy-cyclohexylethynyl)-3-methyl-phenyl]-propyl}-phenyl)-pyridin-3-yl]-acetic Acid], the figure is 1228%; as for `CCC(CC)(c1ccc(OCC(O)C(C)(C)C)c(C)c1)c1ccc(-c2ccc(CC(=O)O)cn2)c(C)c1` (stereo not drawn) [Example 101, [6-(4-{1-ethyl-1-[4-(2-hydroxy-3,3-dimethyl-butoxy)-3-methyl-phenyl]-propyl}-2-methyl-phenyl)-pyridin-3-yl]-acetic Acid], 508%; as for `CCC(CC)(c1ccc(CCC(O)C(C)(C)C)c(C)c1)c1ccc(-c2cncc(CC(=O)O)c2)c(C)c1` (single isomer, unassigned) [Example 24, [5-(4-{1-ethyl-1-[4-(3-hydroxy-4,4-dimethyl-pentyl)-3-methyl-phenyl]-propyl}-2-methyl-phenyl)-pyridin-3-yl]-acetic Acid], 660%. The same measure, in the same setting: in the case of `CCC(CC)(c1ccc(/C=C/C(O)(C(F)(F)F)C(F)(F)F)c(C)c1)c1ccc(-c2ccc(CC(=O)O)c(F)c2)c(C)c1` [Example 72, (4′-{1-ethyl-1-[3-methyl-4-((E)-4,4,4-trifluoro-3-hydroxy-3-trifluoromethyl-1-butenyl)-phenyl]-propyl}-3-fluoro-2′-methyl-biphenyl-4-yl)-acetic Acid] it was 1624%; in that of `CCC(CC)(c1ccc(CCC(O)C(C)(C)C)c(C)c1)c1ccc(-c2ccc(CC(=O)O)cc2)c(C)c1` (single isomer, unassigned) [Example 13, (4′-{1-ethyl-1-[4-(3-hydroxy-4,4-dimethyl-pentyl)-3-methyl-phenyl]-propyl}-2′-methyl-biphenyl-4-yl)-acetic Acid], 401%. As for `C=C1/C(=C\C=C2/CCC[C@]3(C)[C@@H]([C@H](C)CCCC(C)(C)O)CC[C@@H]23)C[C@@H](O)C[C@@H]1O` [1,25(OH)2D3, 1α,25-dihydroxyvitamin D3, reference compound], the “Osteocalcin production level in MG-63 cells (%)” value in assay [1] amounted to 100%. As for `CCC(CC)(c1ccc(OCC(O)C(C)(C)C)c(C)c1)c1ccc(-c2ccc(CC(=O)O)c(F)c2)c(C)c1` (stereo not drawn) [Example 100, (4′-{1-ethyl-1-[4-(2-hydroxy-3,3-dimethyl-butoxy)-3-methyl-phenyl]-propyl}-3-fluoro-2′-methyl-biphenyl-4-yl)-acetic Acid], the “Osteocalcin production level in MG-63 cells (%)” value in assay [1] came to 878%.

Take `CCC(CC)(c1ccc(C#CC(O)(C(F)(F)F)C(F)(F)F)c(C)c1)c1ccc(-c2cncc(CC(=O)O)c2)c(C)c1` [Example 80, [5-(4-{1-ethyl-1-[3-methyl-4-(4,4,4-trifluoro-3-hydroxy-3-trifluoromethyl-1-butynyl)-phenyl]-propyl}-2-methyl-phenyl)-pyridin-3-yl]-acetic Acid]: the figures for the “Lumbar spine bone density (%)” value in assay [2] (0.05 μg/kg) and in assay [2] (0.1 μg/kg) were 110.75% and 116.68%, respectively. Regarding `CCC(O)(/C=C/c1ccc(C(CC)(CC)c2ccc(-c3ccc(CC(=O)[O-])c(F)c3)c(C)c2)cc1C)CC.[Na+]` [Example 48, Sodium (4′-{1-ethyl-1-[4-((E)-3-ethyl-3-hydroxy-1-pentenyl)-3-methyl-phenyl]-propyl}-3-fluoro-2′-methyl-biphenyl-4-yl)-acetate], the “Osteocalcin production level in MG-63 cells (%)” value in assay [1] is on record as 508%.
